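Compound exposure: 48 hours, 5 concentrations, 96-well plates. The concentration for 50% growth inhibition is given as GI50. The concentration for full growth arrest is given as TGI.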
Assays:
Experiment in all cases: growth of human tumour cells (NCI), 48 h
[1] = test system: HT29 colon
[2] = test system: OVCAR-5 ovarian
[3] = test system: CAKI-1 renal
[4] = test system: OVCAR-4 ovarian
[5] = test system: TK-10 renal
[6] = test system: COLO 205 colon
[7] = test system: HCT-116 colon
[8] = test system: NCI-H226 lung
[9] = test system: HOP-92 NSCLC
[10] = test system: 786-0 renal
[11] = test system: MDA-MB-435
[12] = test system: BT-549 breast
[13] = test system: DU-145 prostate
[14] = test system: MALME-3M melanoma
[15] = test system: NCI-H460 lung
[16] = test system: MOLT-4 leukemia
[17] = test system: A498 renal
[18] = test system: HCT-15 colon
[19] = test system: OVCAR-3 ovarian
[20] = test system: SF-539 CNS
[21] = test system: HOP-62 NSCLC
[22] = test system: SN12C renal
[23] = test system: NCI/ADR-RES ovarian
[24] = test system: UO-31 renal
[25] = test system: NCI-H522 lung
[26] = test system: T-47D breast
[27] = test system: IGROV1 ovarian
[28] = test system: OVCAR-8 ovarian
[29] = test system: A549 NSCLC
[30] = test system: SNB-75 CNS
[31] = test system: PC-3 prostate
[32] = test system: SF-295 CNS
[33] = test system: MCF7 breast
[34] = test system: SR leukemia
[35] = test system: RXF 393 renal
[36] = test system: EKVX NSCLC
[37] = test system: LOX IMVI melanoma
[38] = test system: SW-620 colon
[39] = test system: U251 CNS
[40] = test system: RPMI-8226 leukemia
[41] = test system: UACC-62 melanoma
[42] = test system: SF-268 CNS
[43] = test system: HCC-2998 colon
[44] = test system: SK-MEL-2 melanoma
[45] = test system: MDA-MB-231 breast
[46] = test system: HS 578T breast
[47] = test system: HL-60(TB) leukemia
[48] = test system: CCRF-CEM leukemia
[49] = test system: NCI-H23 lung
[50] = test system: KM12 colon
[51] = test system: SK-MEL-28 melanoma
[52] = test system: K-562 leukemia
[53] = test system: ACHN renal
[54] = test system: SNB-19 CNS
[55] = test system: SK-MEL-5 melanoma
[56] = test system: M14 melanoma
[57] = test system: UACC-257 melanoma

## FC(F)(F)c1ccc(-c2cncn2-c2ccccc2)cc1
[1]
  GI50: 21.3 µM
  TGI: > 100 µM
[2]
  GI50: 23.5 µM
  TGI: 79.4 µM
[3]
  GI50: 4.71 µM
  TGI: > 100 µM
[4]
  GI50: 36 µM
  TGI: > 100 µM
[5]
  GI50: 24.2 µM
  TGI: > 100 µM
[6]
  GI50: 19.1 µM
  TGI: 47.1 µM
[7]
  GI50: 1.88 µM
  TGI: 16.3 µM
[8]
  GI50: 10.5 µM
  TGI: 27.8 µM
[9]
  GI50: 2.89 µM
  TGI: 18.9 µM
[10]
  GI50: 10 µM
  TGI: 21.9 µM
[11]
  GI50: 24.4 µM
  TGI: 88.5 µM
[12]
  GI50: 15.1 µM
  TGI: 40.4 µM
[13]
  GI50: 6.28 µM
  TGI: 26.2 µM
[14]
  GI50: 21.1 µM
  TGI: 43.1 µM
[15]
  GI50: 16.9 µM
  TGI: > 100 µM
[16]
  GI50: 3.9 µM
  TGI: 27.2 µM
[17]
  GI50: 12.9 µM
  TGI: 27.1 µM
[18]
  GI50: 18.1 µM
  TGI: > 100 µM
[19]
  GI50: 16.6 µM
  TGI: 38.9 µM
[20]
  GI50: 15.6 µM
  TGI: 41.8 µM
[21]
  GI50: 2.72 µM
  TGI: 20.7 µM
[22]
  GI50: 10.4 µM
  TGI: 23.5 µM
[23]
  GI50: 7.13 µM
  TGI: 30.2 µM
[24]
  GI50: 4.59 µM
  TGI: 21.5 µM
[25]
  GI50: 8.54 µM
  TGI: 25.2 µM
[26]
  GI50: 15.5 µM
  TGI: > 100 µM
[27]
  GI50: 12.3 µM
  TGI: 38.6 µM
[28]
  GI50: 13.6 µM
  TGI: 33.8 µM
[29]
  GI50: 11.9 µM
  TGI: 27.5 µM
[30]
  GI50: 15.3 µM
  TGI: 40.7 µM
[31]
  GI50: 13 µM
  TGI: 35.6 µM
[32]
  GI50: 19.3 µM
  TGI: > 100 µM
[33]
  GI50: 22.7 µM
  TGI: > 100 µM
[34]
  GI50: 1.18 µM
  TGI: 7.89 µM
[35]
  GI50: 16.6 µM
  TGI: 32.2 µM
[36]
  GI50: 17.1 µM
  TGI: 54.3 µM
[37]
  GI50: 5.68 µM
  TGI: 23.2 µM
[38]
  GI50: 4.03 µM
  TGI: 57.1 µM
[39]
  GI50: 6.89 µM
  TGI: 30.6 µM
[40]
  GI50: 5.75 µM
  TGI: 27.2 µM
[41]
  GI50: 11.2 µM
  TGI: 24.9 µM
[42]
  GI50: 36.6 µM
  TGI: > 100 µM
[43]
  GI50: 12.3 µM
  TGI: 26.2 µM
[44]
  GI50: 18.2 µM
  TGI: 37.9 µM
[45]
  GI50: 11.8 µM
  TGI: 28.6 µM
[46]
  GI50: 16.4 µM
  TGI: 47.8 µM
[47]
  GI50: 12.7 µM
  TGI: 35.6 µM
[48]
  GI50: 2.84 µM
  TGI: 15.7 µM
[49]
  GI50: 10.4 µM
  TGI: 34.4 µM
[50]
  GI50: 20.6 µM
  TGI: 70.8 µM
[51]
  GI50: 39.1 µM
  TGI: > 100 µM
[52]
  GI50: 20.9 µM
  TGI: 77.6 µM
[53]
  GI50: 3.68 µM
  TGI: 23 µM
[54]
  GI50: 10.4 µM
  TGI: 38.5 µM
[55]
  GI50: 13 µM
  TGI: 26.9 µM
[56]
  GI50: 13 µM
  TGI: 27.1 µM
[57]
  GI50: 19.9 µM
  TGI: 49 µM

— PubChem BioAssay (NCI)
